Test results as given in the supplement of paper PMC10307832.

Experiments:
Test in all cases: relative viability (nuclei count vs DMSO), 5 days (fraction); higher = more cells survive
201T = system: 201T
Outline: (§1)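 After 5 days of treatment, lung cancer cells in 1536-well plates were fixed and stained in a single step (final 0.05% Triton X-100, 1% formaldehyde, 1 ug/ml Hoechst) and their nuclei counted on 4× images. Treatment had been applied by pin tool the day after seeding as one drug alone or as a fixed anchor-drug dose with five library-drug doses (not always all listed) in √10 steps. Relative viability is the nuclei count of treated wells divided by that of vehicle wells, and values are medians of duplicate plates.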

COR-L23 = system: COR-L23
Outline: as §1

EPLC-272H = system: EPLC-272H
Outline: as §1

H3255 = system: H3255
Outline: as §1

HCC-44 = system: HCC-44
Outline: as §1

LOU-NH91 = system: LOU-NH91
Outline: as §1

NCI-H1650 = system: NCI-H1650
Outline: as §1

NCI-H1734 = system: NCI-H1734
Outline: as §1

NCI-H1793 = system: NCI-H1793
Outline: as §1

NCI-H1993 = system: NCI-H1993
Outline: as §1

NCI-H2023 = system: NCI-H2023
Outline: as §1

NCI-H2085 = system: NCI-H2085
Outline: as §1

NCI-H2170 = system: NCI-H2170
Outline: as §1

NCI-H2347 = system: NCI-H2347
Outline: as §1

NCI-H2405 = system: NCI-H2405
Outline: as §1

NCI-H3122 = system: NCI-H3122
Outline: as §1

NCI-H441 = system: NCI-H441
Outline: as §1

NCI-H520 = system: NCI-H520
Outline: as §1

NCI-H647 = system: NCI-H647
Outline: as §1

PC-14 = system: PC-14
Outline: as §1

RERF-LC-KJ = system: RERF-LC-KJ
Outline: as §1

SW 900 = system: SW 900
Outline: as §1

`NC(=O)Nc1cc(-c2cccc(F)c2)sc1C(=O)N[C@H]1CCCNC1` [AZD7762] + Cc1cc(Nc2cc(N3CCN(C)CC3)nc(Sc3ccc(NC(=O)C4CC4)cc3)n2)n[nH]1 [Tozasertib] (partner 0.1 µM) showed a relative viability (201T; first compound 0.01 µM) of 0.957, a relative viability (201T; first compound 0.03162 µM) of 0.935 and a relative viability (201T; first compound 0.1 µM) of 0.98. The relative viability (201T; first compound 0.3162 µM) was 1.03, the relative viability (201T; first compound 1 µM) was 0.801 and the relative viability (COR-L23; first compound 0.01 µM) was 0.198. It also gave a relative viability (COR-L23; first compound 0.03162 µM) of 0.229, a relative viability (COR-L23; first compound 0.1 µM) of 0.193 and a relative viability (COR-L23; first compound 0.3162 µM) of 0.17. For the same molecule, the relative viability (COR-L23; first compound 1 µM) was 0.0829, the relative viability (EPLC-272H; first compound 0.01 µM) was 0.274 and the relative viability (EPLC-272H; first compound 0.03162 µM) was 0.242. The relative viability (EPLC-272H; first compound 0.1 µM) was 0.248, the relative viability (EPLC-272H; first compound 0.3162 µM) was 0.28 and the relative viability (EPLC-272H; first compound 1 µM) was 0.0908. It also gave a relative viability (H3255; first compound 0.01 µM) of 0.704, a relative viability (H3255; first compound 0.03162 µM) of 0.595 and a relative viability (H3255; first compound 0.1 µM) of 0.677. For the same molecule, the relative viability (H3255; first compound 0.3162 µM) was 0.591, the relative viability (H3255; first compound 1 µM) was 0.576 and the relative viability (HCC-44; first compound 0.01 µM) was 1.1. It also gave a relative viability (HCC-44; first compound 0.03162 µM) of 0.87, a relative viability (HCC-44; first compound 0.1 µM) of 0.714 and a relative viability (HCC-44; first compound 0.3162 µM) of 0.822. It also gave a relative viability (HCC-44; first compound 1 µM) of 0.412, a relative viability (LOU-NH91; first compound 0.01 µM) of 0.741 and a relative viability (LOU-NH91; first compound 0.03162 µM) of 0.701. For the same molecule, the relative viability (LOU-NH91; first compound 0.1 µM) was 0.665, the relative viability (LOU-NH91; first compound 0.3162 µM) was 0.623 and the relative viability (LOU-NH91; first compound 1 µM) was 0.429. The relative viability (NCI-H1650; first compound 0.01 µM) was 0.482, the relative viability (NCI-H1650; first compound 0.03162 µM) was 0.467 and the relative viability (NCI-H1650; first compound 0.1 µM) was 0.424. For the same molecule, the relative viability (NCI-H1650; first compound 0.3162 µM) was 0.207, the relative viability (NCI-H1650; first compound 1 µM) was 0.118 and the relative viability (NCI-H1734; first compound 0.01 µM) was 0.263. For the same molecule, the relative viability (NCI-H1734; first compound 0.03162 µM) was 0.25, the relative viability (NCI-H1734; first compound 0.1 µM) was 0.234 and the relative viability (NCI-H1734; first compound 0.3162 µM) was 0.22. It also gave a relative viability (NCI-H1734; first compound 1 µM) of 0.199, a relative viability (NCI-H1793; first compound 0.01 µM) of 0.395 and a relative viability (NCI-H1793; first compound 0.03162 µM) of 0.403. For the same molecule, the relative viability (NCI-H1793; first compound 0.1 µM) was 0.314, the relative viability (NCI-H1793; first compound 0.3162 µM) was 0.374 and the relative viability (NCI-H1793; first compound 1 µM) was 0.198. The relative viability (NCI-H1993; first compound 0.01 µM) was 0.654, the relative viability (NCI-H1993; first compound 0.03162 µM) was 0.579 and the relative viability (NCI-H1993; first compound 0.1 µM) was 0.628. For the same molecule, the relative viability (NCI-H1993; first compound 0.3162 µM) was 0.641, the relative viability (NCI-H1993; first compound 1 µM) was 0.547 and the relative viability (NCI-H2023; first compound 0.01 µM) was 0.374. For the same molecule, the relative viability (NCI-H2023; first compound 0.03162 µM) was 0.307, the relative viability (NCI-H2023; first compound 0.1 µM) was 0.227 and the relative viability (NCI-H2023; first compound 0.3162 µM) was 0.105. The relative viability (NCI-H2023; first compound 1 µM) was 0.0751, the relative viability (NCI-H2085; first compound 0.01 µM) was 0.875 and the relative viability (NCI-H2085; first compound 0.03162 µM) was 0.769. For the same molecule, the relative viability (NCI-H2085; first compound 0.1 µM) was 0.807, the relative viability (NCI-H2085; first compound 0.3162 µM) was 0.729 and the relative viability (NCI-H2085; first compound 1 µM) was 0.713. For the same molecule, the relative viability (NCI-H2170; first compound 0.01 µM) was 0.781, the relative viability (NCI-H2170; first compound 0.03162 µM) was 0.726 and the relative viability (NCI-H2170; first compound 0.1 µM) was 0.697. It also gave a relative viability (NCI-H2170; first compound 0.3162 µM) of 0.788, a relative viability (NCI-H2170; first compound 1 µM) of 0.726 and a relative viability (NCI-H2347; first compound 0.01 µM) of 0.62. For the same molecule, the relative viability (NCI-H2347; first compound 0.03162 µM) was 0.551, the relative viability (NCI-H2347; first compound 0.1 µM) was 0.585 and the relative viability (NCI-H2347; first compound 0.3162 µM) was 0.567. For the same molecule, the relative viability (NCI-H2347; first compound 1 µM) was 0.521, the relative viability (NCI-H2405; first compound 0.01 µM) was 0.793 and the relative viability (NCI-H2405; first compound 0.03162 µM) was 0.832. The relative viability (NCI-H2405; first compound 0.1 µM) was 0.783, the relative viability (NCI-H2405; first compound 0.3162 µM) was 0.748 and the relative viability (NCI-H2405; first compound 1 µM) was 0.424. The relative viability (NCI-H3122; first compound 0.01 µM) was 0.475, the relative viability (NCI-H3122; first compound 0.03162 µM) was 0.412 and the relative viability (NCI-H3122; first compound 0.1 µM) was 0.402. The relative viability (NCI-H3122; first compound 0.3162 µM) was 0.278, the relative viability (NCI-H3122; first compound 1 µM) was 0.156 and the relative viability (NCI-H441; first compound 0.01 µM) was 0.801. For the same molecule, the relative viability (NCI-H441; first compound 0.03162 µM) was 0.907, the relative viability (NCI-H441; first compound 0.1 µM) was 0.908 and the relative viability (NCI-H441; first compound 0.3162 µM) was 0.925. The relative viability (NCI-H441; first compound 1 µM) was 0.587, the relative viability (NCI-H520; first compound 0.01 µM) was 0.493 and the relative viability (NCI-H520; first compound 0.03162 µM) was 0.36. It also gave a relative viability (NCI-H520; first compound 0.1 µM) of 0.425, a relative viability (NCI-H520; first compound 0.3162 µM) of 0.39 and a relative viability (NCI-H520; first compound 1 µM) of 0.275. It also gave a relative viability (NCI-H647; first compound 0.01 µM) of 0.379, a relative viability (NCI-H647; first compound 0.03162 µM) of 0.218 and a relative viability (NCI-H647; first compound 0.1 µM) of 0.314. It also gave a relative viability (NCI-H647; first compound 0.3162 µM) of 0.254, a relative viability (NCI-H647; first compound 1 µM) of 0.0439 and a relative viability (PC-14; first compound 0.01 µM) of 0.69. For the same molecule, the relative viability (PC-14; first compound 0.03162 µM) was 0.544, the relative viability (PC-14; first compound 0.1 µM) was 0.555 and the relative viability (PC-14; first compound 0.3162 µM) was 0.511. It also gave a relative viability (PC-14; first compound 1 µM) of 0.269, a relative viability (RERF-LC-KJ; first compound 0.01 µM) of 0.637 and a relative viability (RERF-LC-KJ; first compound 0.03162 µM) of 0.509. For the same molecule, the relative viability (RERF-LC-KJ; first compound 0.1 µM) was 0.422, the relative viability (RERF-LC-KJ; first compound 0.3162 µM) was 0.453 and the relative viability (RERF-LC-KJ; first compound 1 µM) was 0.249. The relative viability (SW 900; first compound 0.01 µM) was 0.713, the relative viability (SW 900; first compound 0.03162 µM) was 0.536 and the relative viability (SW 900; first compound 0.1 µM) was 0.743. For the same molecule, the relative viability (SW 900; first compound 0.3162 µM) was 0.663 and the relative viability (SW 900; first compound 1 µM) was 0.403.
